Measurements: US12590057B2, “Crystalline complexes” (Theracryf PLC, priority 2020, dated 2026)
Marks after values point to notes of the source that are not given here.

Key:
Format in all cases: physicochemical
[1] = Preliminary stability study, related substances by HPLC; details: 25° C./60% RH stability
Description: Analysis of samples of sulforaphane:alpha-cyclodextrin complexes as prepared herein were carried out by HPLC according to the following method: • Column—Phenomenex Gemini C18, 5 μm, 110 Å, 250×4.6 mm; • Mobile Phase A: Water (+0.1% TFA); • Mobile Phase B: Acetonitrile (+0.1% TFA); • Flow: 1.5 mL/min; • Injection Volume: 10 μL; • Column Temperature: 25° C.; • Run Time: 40 minutes; • Sample preparation—Accurately weighed and transferred about 320 mg±30 mg of the sample to a 25-mL volumetric flask, added about 15 mL of diluent (70% water, 30% acetonitrile, 0.1% TFA) and mixed until dissolved. Diluted to volume with diluent and mixed. Transferred 3-4 mL to a syringe and filtered using a 0.45 PTFE filter, discarding the first 1-2 ml, and filtered into an autosampler vial and sealed with PTFE lined cap (prepared in duplicate); • HPLC Gradient according to Table 12
Sulforaphane and certain related impurity peaks are summarised in Table 13, Characterisation of the impurities was carried out by LC-MS and ^1H-NMR. Relative Retention Times (RRT) are based on the HPLC method described above.
Samples of Form 1 (batch ref. LS19-0004-S-8002), Form 3 prepared by minimally-agitated drying (Example 5.3; batch ref. 491-PAL-18) and Form 3 prepared by continuously-agitated filter drying (Example 5B—trial 5; batch ref. 00173-005) were stored at 5° C. (Table 14) and at 25° C./60% RH (Table 15) for 8 weeks in 60 ml Duma® bottles fitted with 45 mm Duma® caps and samples were analysed by HPLC according to the above method.

[2] = TGA mass loss (water content) after exposure to ambient conditions
Description: TGA data were collected on a TA Instruments Discovery TGA, equipped with a 25-position auto-sampler. Typically, 5-10 mg of each sample was loaded onto a pre-tared aluminium DSC pan and heated at 10° C./min from ambient temperature to 350° C. A nitrogen purge at 25 ml/min was maintained over the sample. The instrument control software was TRIOS and the data were analysed using TRIOS or Universal Analysis.
Example 3 was also analysed by TGA at days 1, 3, 7, 9, 15 and 20 after removal from the vacuum oven and exposure to ambient conditions, as described in Table 6.

[3] = Aqueous manipulation (slurry in water, XRPD)
Description: Example 3—Form 3 (100 mg) was placed in a 4 ml vial, to which H2O (200 μl, 2 volumes) was added. The sample was capped and left at ambient temperature overnight. A spatula fill of the slurry was placed in a well and analysed by XRPD in transmission mode. The XRPD analysis was repeated every 5 minutes for 36 minutes on the same sample in the well. An XRPD was recorded 4 hours later too.

Compression testing = details: 20 kg, 50 kg and 100 kg for 2 minutes each
Description: 15 mg samples of Example 3 (Form 3) were compressed into 3 mm recess discs under 20 kg, 50 kg and 100 kg of pressure for 2 minutes each.

In the case of `C[S+]([O-])CCCCN=C=S.OCC1OC2OC3C(CO)OC(OC4C(CO)OC(OC5C(CO)OC(OC6C(CO)OC(OC7C(CO)OC(OC1C(O)C2O)C(O)C7O)C(O)C6O)C(O)C5O)C(O)C4O)C(O)C3O` (stereo not drawn) [Form 1], the “Related substances, HPLC RRT 0.56 (Dimer)” value ([1]; 8 wk) was 0.20 % Area, the “Related substances, HPLC RRT 0.60 (α-CD adduct)” value ([1]; 8 wk) was 0.10 % Area and the “Related substances, HPLC RRT 1.14 (Mixed dimer)” value ([1]; 8 wk) was 0.06 % Area. The “Related substances, HPLC RRT 1.21 (Erysolin)” value ([1]; 8 wk) was 0.30 % Area, the “Related substances, HPLC RRT 1.58 (Thioether dimer)” value ([1]; 8 wk) was <0.05 % Area and the “Related substances, Total Impurities” value ([1]; 8 wk) was 0.99 % Area. For the same molecule, the “Related substances, HPLC RRT 0.56 (Dimer)” value ([1]; Initial) was 0.19 % Area, the “Related substances, HPLC RRT 0.60 (α-CD adduct)” value ([1]; Initial) was 0.06 % Area and the “Related substances, HPLC RRT 1.14 (Mixed dimer)” value ([1]; Initial) was <0.05 % Area. The “Related substances, HPLC RRT 1.21 (Erysolin)” value ([1]; Initial) was 0.28 % Area, the “Related substances, HPLC RRT 1.58 (Thioether dimer)” value ([1]; Initial) was <0.05 % Area and the “Related substances, Total Impurities” value ([1]; Initial) was 0.90 % Area.

In the case of `C[S+]([O-])CCCCN=C=S.OC[C@H]1O[C@@H]2O[C@H]3[C@H](O)[C@@H](O)[C@@H](O[C@H]4[C@H](O)[C@@H](O)[C@@H](O[C@H]5[C@H](O)[C@@H](O)[C@@H](O[C@H]6[C@H](O)[C@@H](O)[C@@H](O[C@H]7[C@H](O)[C@@H](O)[C@@H](O[C@H]1[C@H](O)[C@H]2O)O[C@@H]7CO)O[C@@H]6CO)O[C@@H]5CO)O[C@@H]4CO)O[C@@H]3CO` [Form 3], the TGA mass loss ([2]; 1 day exposed to ambient conditions, average of two readings) was 4.0* % wt, the TGA mass loss ([2]; 3 days exposed to ambient conditions) was 5.1 % wt and the TGA mass loss ([2]; 7 days exposed to ambient conditions) was 5.7 % wt. The TGA mass loss ([2]; 9 days exposed to ambient conditions) was 6.0 % wt, the TGA mass loss ([2]; 15 days exposed to ambient conditions) was 6.4 % wt and the TGA mass loss ([2]; 20 days exposed to ambient conditions) was 6.2 % wt. The stabilised water content ([2]; after gradual absorption of atmospheric moisture) was “approximately 6 % wt”, the “water molecules per 1:1 sulforaphane:α-cyclodextrin complex” value ([2]; at stabilised water content) was 3.5 to 4 and the “form by XRPD when slurried in water” value ([3]; 2 volumes H2O, ambient temperature overnight, XRPD after 14 and 36 mins) was “converted to Form 2”. The “form by XRPD after slurry sample left at ambient conditions” value ([3]; 4 further hours at ambient conditions) was “converted from Form 2 to Form 1”, the “decomposition by 1H-NMR after compression” value (Compression testing) was “No decomposition” and the “form by XRPD after compression” value (Compression testing) was “still existed as Form 3”.
